Reference: US12083133B2, “Use of cholecalciferol as adjuvant in the treatment of muscular dystrophies” (ABIOGEN PHARMA SPA, priority 2021, dated 2024)
“Also recorded” adds a separate entry of the source.

Tests used:
[1] = cited from earlier work
[2] = tested on: MyoD; assay: Immunohistochemistry with anti-MyoD antibody (proliferating myoblasts); assay type: in vivo, mouse; conditions: mdx mice, 24 weeks of treatment
Experimental: (§1) Skeletal muscle growth and regeneration are attributable to satellite cells, which are stem cells resident in the basal lamina surrounding each myofiber. The expression of Pax7 (Paired-Box Transcription Factor 7) is constitutive, that is, this factor is expressed in these cells both in the quiescent and in the activation phase. When satellite cells are activated, they also co-express MyoD, which correlates with active muscle regeneration.
(§2) The expression of Pax7 was then analysed for the identification of satellite cells (progenitors) located under the basal lamina of myofibers, and of MyoD, expressed by myoblasts during proliferation.
(§3) Analyses were performed on the groups after 24 weeks of treatment.
(§4) Samples for immunohistochemistry were included in OCT, placed in isopentane, frozen with liquid nitrogen and kept at −80° C. Anti-Pax7 antibodies were used to label satellite cells and anti-MyoD for myoblasts.

[3] = tested on: muscle tissue of mdx mice; assay: Histopathologic analyses of muscle tissue (haematoxylin-eosin), graded 0 (absent) to 3 (very high); assay type: in vivo, mouse
Experimental: These analyses were performed on the material taken during necropsy performed after the sacrifice of the animals of groups 7 and 8. In particular, the quadriceps femoris, the diaphragm and the anterior tibial muscle were collected.
The samples taken and fixed were decalcified, embedded in paraffin according to the known technique, cut into 5-7 μm thick sections and stained with haematoxylin-eosin. The following forms of alteration were evaluated at the muscle tissue level, each of which was classified according to a grade from 0 (absent) to 3 (very high): • Atrophy • Degeneration • Inflammation • Oedema • Presence of adipose tissue • Hypertrophy • Regeneration • Mineralization Results

[4] = tested on: mdx mice; assay: Four limb hang test; assay type: in vivo, mouse
Description: For the study, it was chosen as experimental model the mdx (Muscular Dystrophy X-linked) mouse, which has long been used to evaluate the efficacy of drugs against muscular dystrophy and other degenerative diseases that affect skeletal muscles, inducing functional loss. These mice represent the reference animal model for clinical projections, also because they made it possible to overcome the obstacle of the limited availability of human biopsy material for experimental purposes.
The model responds to both steroidal and non-steroidal anti-inflammatory and immunosuppressive treatments and it is also used to study the differential gene and protein expression induced by the various treatments. The test system altogether consisted in 50 C57BL/10ScSn-Dmdxdx/J male mice and 27 C57/BL male mice of about 4-5 weeks of age.
After a short pre-housing period (about 4 days after arrival in the animal enclosure), the animals were subjected to baseline behavioural analyses, as described hereafter. The start time of the analyses, after the pre-housing period, is defined zero time (t=0).
Mice were also subjected to physical exercise with a rotating treadmill (Ugo Basile, Milan) for 15 minutes twice a week at a speed of 12 m/min, to standardize the pathology.
This test was performed at the beginning and at the end of the trial (baseline and final). It is performed using a device that uses a steel grid to measure the mouse's ability to support itself on all four limbs, opposing the force of gravity. The animal is placed on the grid (40×40 cm, delimited by iron strips placed perpendicular to the grid and 5 cm high, with 1 cm squares formed by 1 mm diameter steel wire) which is inverted so that the animal finds itself upside down and hangs on with its paws, about 30 cm from the floor. […] The grid is kept in position for a maximum of 5 minutes and the time, in seconds, during which the animal is able to hang with its paws is recorded.
The results of test are shown in the following table 2 and are expressed in seconds and normalized for the animal's weight. Groups 1-8 reported herein are those described in table 1.

[5] = tested on: muscle fibres of mdx mice; assay: Fluorescence microscopy of muscle fibres (DAPI, anti-WGA); assay type: in vivo, mouse; conditions: 12 weeks of treatment, versus untreated control mdx mice
Description: In fluorescence microscopy analyses DAPI staining (blue) was used for nuclei, while an anti-WGA antibody (WGA, or wheat germ agglutinin, Alexa Fluor® 594 conjugate), which stains cell membranes in red, was used to mark muscle fibres.

[6] = tested on: Pax7; assay: Immunohistochemistry with anti-Pax7 antibody (satellite cells); assay type: in vivo, mouse
Experimental: as §1, §2, §3, §4

[7] = tested on: muscular dystrophies; conditions: state of the art; cited from earlier work
[8] = tested on: Duchenne dystrophy; conditions: state of the art; optimal dose 0.75 mg/kg per day; cited from earlier work
[9] = group 8, mdx mice, 175 μg/kg/day once a week, t = 24 weeks, grade 0 to 3

C=C1CC[C@H](O)C/C1=C/C=C1\CCC[C@]2(C)[C@@H]([C@H](C)CCCC(C)C)CC[C@@H]12 [cholecalciferol]
Blood half-life (T1/2) ([1]; estimated): 19 to 25 h | Functional half-life ([1]; related to slow release from adipose tissue): several weeks | Labelling with anti-MyoD antibody / expression of MyoD [2]: appears extensive; also recorded: restored the expression of MyoD to levels similar to those of wild-type mice | Medium Grading: Atrophy ([3]; group 8, mdx mice, 175 μg/kg/day once a week, t = 24 weeks, grade 0 (absent) to 3 (very high)): 0.44 | Medium Grading: Degeneration [3, 9]: 0 | Medium Grading: Hypertrophy [3, 9]: 2.11 | Medium Grading: Inflammation [3, 9]: 0 | Medium Grading: Mineralization [3, 9]: 0.33 | Medium Grading: Oedema [3, 9]: 0.44 | Medium Grading: Presence of adipose tissue [3, 9]: 0.11 | Medium Grading: Regeneration [3, 9]: 2.66 | Microscopic examination of muscle tissue stained with haematoxylin-eosin (in words) ([3]; mdx mice treated for 24 weeks): areas of regeneration and hypertrophy, and only in few cases muscular atrophy, moreover at low levels | Time in seconds (normalized for the animal's weight) t = 12 weeks ([4]; group 5, mdx mice, 175 μg/kg/day (7000 IU/day) per os once per week for 12 weeks): 0.8 s | Time in seconds (normalized for the animal's weight) t = 0 ([4]; group 5, mdx mice, baseline before treatment (12-week arm)): 0.9 s | Time in seconds (normalized for the animal's weight) t = 24 weeks ([4]; group 8, mdx mice, 175 μg/kg/day (7000 IU/day) per os once per week for 24 weeks): 0.9 s | Time in seconds (normalized for the animal's weight) t = 12 weeks ([4]; group 8, mdx mice, 175 μg/kg/day (7000 IU/day) per os once per week, 24-week arm): 1.2 s | Time in seconds (normalized for the animal's weight) t = 0 ([4]; group 8, mdx mice, baseline before treatment (24-week arm)): 1.7 s | Increase in resistance to detachment from the grid, in terms of time, versus untreated mdx animals ([4]; mdx mice, test at 24 weeks): 80% | Structure of muscle fibres and position of cell nuclei [5]: cell nuclei distributed both centrally and peripherally and less disrupted muscle fibres; also recorded: visibly less disrupted | Positivity of muscle tissue for anti-Pax7 antibody (marker of satellite cells) ([6]; mdx mice treated with cholecalciferol): highly positive | Labelling with anti-Pax7 antibody (satellite cells) ([6]; mdx mice, 24 weeks of treatment, versus vehicle-treated mdx mice): clearly present and localized on the contours of the muscle fibres; also recorded: more evident

CC(C)(S)[C@@H](N)C(=O)O [penicillamine]
Efficacy as therapy of muscular dystrophies [7]: ineffective

C[C@]12C=CC(=O)C=C1CC[C@@H]1[C@@H]2C(=O)C[C@@]2(C)[C@H]1CC[C@]2(O)C(=O)CO [prednisone]
Delay of the progression time of Duchenne dystrophy [8]: more than 3 years

C[C@]12CC[C@H]3[C@@H](CCC4=CC(=O)CC[C@@]43C)[C@@H]1CC[C@@H]2O [testosterone]
Efficacy as therapy of muscular dystrophies [7]: ineffective

vitamin E
Efficacy as therapy of muscular dystrophies [7]: ineffective
